# Experimental data: patent US20130096212A1, “Method and a Kit to Predict Response to Antidepressant Treatment” (UNIVERSITY OF TARTU, priority 2011, published 2013)
# Tests used:
# [1] = tested on: outpatients with Major Depressive Disorder; assay: 12-week open-label escitalopram treatment of MDD outpatients, Estonian sample (MADRS, HAM-D, CGI), also by rs41271330 genotype; type: in vivo, human; conditions: for patients with moderate or severe depression (MADRS score 16 or more): end of 12 weeks
# Excerpt: The study sample consisted of 135 outpatients with Major Depressive Disorder, MDD (mean age 31.1±11.6 years, 68% females) recruited at the Psychiatry Clinic of Tartu University Hospital in Estonia. The diagnosis according to DSM-IV criteria was verified using Mini International Neuropsychiatric Interview (M.I.N.I. 5.0.0) and substantiated by psychiatric history and medical records. At least moderate severity of depression was required for inclusion as indicated by a Montgomery-Asberg Depression Rating Scale (MADRS) total score of 22 or higher. MDD patients with a secondary current comorbid anxiety disorder were included in this study, except for obsessive-compulsive disorder, posttraumatic stress disorder, or panic disorder, and these comprised 51% of the sample. Patients were excluded if they met diagnostic criteria for any of the following: bipolar disorder, psychotic disorder or features, current eating disorders, mental retardation, any pervasive developmental disorder or cognitive disorder, or alcohol or drug abuse-related disorders within 12 months prior to baseline. Additional exclusion criteria were acute infections, neurological or any other unstable general disorders, serious suicide risk, formal behaviour therapy, or systematic psychotherapy, pregnancy or breastfeeding. None of patients was known to have a history of hypersensitivity or non-response to escitalopram or other SSRIs. The Human Studies Ethics Committee of the University of Tartu and State Agency of Medicines had approved the study protocol, which was in accordance with Declaration of Helsinki. All participants provided their written informed consent.
# The patients were treated with escitalopram 10-20 mg/day for 12 weeks using an open-label, placebo non-controlled study design. No other medications, including anti-inflammatory drugs, were allowed during the study, except for hormonal contraceptives and zolpidem or zopiclone for insomnia. Clinical severity and treatment response were assessed bi-weekly using the MADRS and Clinical Global Impression scale (CGI). Hamilton Depression Scale (HAM-D) was also used as a secondary scale for clinical assessments. Additionally, the patients were asked to evaluate the depressive symptoms on the Beck Depression Inventory (BDI) and possible side effects on the Toronto Side-effect Scale (TSES) at each visit. All patients started treatment with escitalopram at a dose of 10 mg/day for the first 4 weeks. The patients showing at least 50% decline in the MADRS total score at week 4 continued taking 10 mg of escitalopram until the end of study. […] At the end of week 12 the patients were defined as responders if the decrease in both MADRS and HAM-D total scores was at least 50% and score on the CGI improvement scale was 2 or less. The remitters were defined if the scores were less than 12 on the MADRS and less than 8 on the HAM-D accordingly to earlier clinical trials. […] The severity of depressive symptoms and treatment response were rated blindly to genotypes by one psychiatrist. Each visit the patients were also asked to report about their regularity of taking the medication.
# (§1) These 38 markers were genotyped in the remaining 116 individuals, and tested for association with the clinical outcome. Three different outcome definitions were used: MADRS score at the final visit (week 12), relative change (percentage) in MADRS score since baseline, and absolute change in MADRS score since baseline. For each outcome, a univariate additive regression model was fitted to assess the association, as well as a multivariate model, adjusted for age, gender, age at first depression episode, baseline MADRS and BDI scores. Additionally a mixed-effects longitudinal model was fit for MADRS scores at week 0 to week 12, using a random subject-specific intercept. Also here, both unadjusted and adjusted models were fit. […]
# MDD patients = assay: Replication sample: MDD patients treated with escitalopram for 12 weeks, MADRS change by rs41271330 genotype; type: in vivo, human; conditions: 394 patients, SE=3%
# Excerpt: as §1, with “Replication sample consisted of 394 patients treated with escitalopram for 12 weeks. All the patients were of European origin. […] For validation of significant markers from previous step 5 SNPs were genotyped with pre-designed Taqman assays and one SNP was genotyped with Sanger sequencing. These” for “These”, “fit. Age at recruitment, gender, age at first depression episode and baseline BDI score appeared to be independently predictive (p<0.05) for at least one of the outcomes after adjusting for other covariates in a multivariate regression model and were therefore used as adjustment variables for genotype-outcome association.” for “fit.”
smiles,measurement,setting,value
CN(C)CCC[C@@]1(c2ccc(F)cc2)OCc2cc(C#N)ccc21 [escitalopram],patients who discontinued treatment due to lack of efficacy or side effects,[1]; 12-week study,6.7%
same,decrease of relative MADRS score reduction from baseline per copy of the rs41271330 minor allele,"[1]; Estonian sample, 116 patients, SE=6%",18%
same,patients who needed an increased dose after the initial 4 weeks,[1]; carriers of rs41271330 minor allele,88.9%
same,patients with moderate or severe depression (MADRS score 16 or more),"[1]; carriers of rs41271330 minor allele (A), 14/27",52%
same,patients with moderate or severe depression (MADRS score 16 or more),"[1]; homozygous for rs41271330 major allele (G), 19/89",22%
same,patients with insufficient or partial response to treatment,[1]; end of week 12,32.6%
same,patients defined as responders,"[1]; end of week 12, 10-20 mg/day, 135 MDD outpatients, at least 50% decrease in MADRS and HAM-D and CGI improvement 2 or less",60.7%
same,patients who achieved remission,"[1]; end of week 12, MADRS less than 12 and HAM-D less than 8, of total sample",58.5%
same,patients who needed an increased dose after the initial 4 weeks,[1]; homozygous for rs41271330 major allele,62.9%
same,responders among the patients whose daily dose was increased and kept at 20 mg,"[1]; of 85 patients on 20 mg, end of study",41 patients
same,number of patients with MADRS score at week 12 of 0...7,[1]; rs41271330 A/G + A/A,9
same,number of patients with MADRS score at week 12 of 8...15,[1]; rs41271330 A/G + A/A,4
same,number of patients with MADRS score at week 12 of 16...25,[1]; rs41271330 A/G + A/A,10
same,number of patients with MADRS score at week 12 of >25,[1]; rs41271330 A/G + A/A,4
same,share of patients with MADRS score at week 12 of 0...7,[1]; rs41271330 A/G + A/A,33%
same,share of patients with MADRS score at week 12 of 8...15,[1]; rs41271330 A/G + A/A,15%
same,share of patients with MADRS score at week 12 of 16...25,[1]; rs41271330 A/G + A/A,37%
same,share of patients with MADRS score at week 12 of >25,[1]; rs41271330 A/G + A/A,15%
same,number of patients with MADRS score at week 12 of 0...7,[1]; rs41271330 G/G,61
same,number of patients with MADRS score at week 12 of 8...15,[1]; rs41271330 G/G,9
same,number of patients with MADRS score at week 12 of 16...25,[1]; rs41271330 G/G,15
same,number of patients with MADRS score at week 12 of >25,[1]; rs41271330 G/G,4
same,share of patients with MADRS score at week 12 of 0...7,[1]; rs41271330 G/G,69%
same,share of patients with MADRS score at week 12 of 8...15,[1]; rs41271330 G/G,10%
same,share of patients with MADRS score at week 12 of 16...25,[1]; rs41271330 G/G,17%
same,share of patients with MADRS score at week 12 of >25,[1]; rs41271330 G/G,4%
same,decrease of relative MADRS score reduction from baseline per copy of the rs41271330 minor allele,MDD patients,7%
